Each structure is given as a SMILES string.

For one test, the system named is BHY cells. Put plainly: BHY proliferation and cell viability assay (CTG). In kind it is cell-based. The note with it: BHY cell line. The protocol: BHY cells were trypsinised, counted and plated at the specified cell density in 200 μl of growth media in 96 well flat bottom tissue culture treated plates. The plated cells were incubated overnight at 37° C., 5% CO2 before being treated with compounds in triplicate for each assay point. 50 μl of the serially diluted compound was added to each well giving a final DMSO concentration of 0.5% per well and a total volume of 250 μl per well. The treated cells were incubated for 144 hours (6 days) at 37° C., 5% CO2. Following compound treatment, the remaining viable cells were detected using the Promega CellTiter-Glo 2.0 assay as follows: 150 μl of media was removed from each of the wells to be assayed and 100 μl of room temperature CellTiter-Glo 2.0 reagent was added. The plate was placed on an orbital shaker at 500 rpm at room temperature for 2 minutes, and then incubated without shaking for a further 10 minutes at room temperature. 150 μl of cell lysate was removed from each well and dispensed into a single well of a white opaque 96 well plate. Luminescence at 545 nm was read using a BMG CLARIOstar plate reader. The luminescent signal was directly proportional to number of viable cells, the percent of viable cells relative to the DMSO control was then calculated for each assay point. Percent viability relative to DMSO control was plotted against compound concentration and a curve fitted with non-linear regression in GraphPad
Prism software. EC50 and IC50 values are calculated using GraphPad Prism software as follows: For EC50 values, a non-constrained four-parameter logistic curve fit was used (Sigmoidal, 4PL, X is concentration). For Absolute IC50 values the baseline was constrained to Y=0 (Absolute IC50, X is concentration). Area Under the Curve (AUC): Prism computes area-under-the-curve by the trapezoidal method. The analysis sees a fitted curve as simply a series of connected XY points. Prism simply computes the area under the “curve” defined by connecting the points by straight lines. The units of the AUC are the units of the Y axis times units of the X axis.

The target in another test is TEAD3 (Homo sapiens, UniProt Q99594). Put plainly: TEAD thermal shift assay (TSA). In kind it is binding. The source says: (§1) Thermal shift assay (TSA) is a biophysical method to evaluate stability of proteins with change in temperature. The assay measures thermal denaturation temperature in varying conditions such as different drug concentration. For this example, fluorogenic dye was used that bind to unfolded proteins. SYPRO Orange binds non-specifically to hydrophobic surfaces, and water strongly quenches its fluorescence. When the protein unfolds, the exposed hydrophobic surfaces bind the dye, resulting in an increase in fluorescence by excluding water. Detergent micelles also bind the dye and increase background noise dramatically. Binding of small molecules to proteins leads to a stabilization against to thermal denaturation with the degree of thermal stabilization proportional to the strength of binding.
(§2) The study described in this example investigated the change in melting temperature (ΔTm) of TEAD isoforms 1˜4 when treated with TEAD inhibitors. Compound 1-1-a known strong TEAD1 and weak TEAD2 inhibitor; as well as Compound 1-4-a pan-TEAD inhibitor were used as controls.
(§3) Tris-HCL was dissolved in 5 mL of Cell culture grade water and allowed to dissolve completely. The pH was adjusted to 8 using NaOH. Additional assay buffer components were added in the order listed above. The buffer was mixed slowly.
(§4) Assay buffer was prepared according to the procedures outlined above and dispensed into test wells. Spyro orange was added to a concentration of 5× in the assay buffer, followed by test compound stock solution which was added to a concentration of 10 μM or 30 μM in the assay buffer.
(§5) The melt cycle was performed in Bio-RAD PCR instrument from 20-95° C. with ramp rate of 1° C./min.

A further test addresses TEAD4 (Homo sapiens, UniProt Q15561). Put plainly: TEAD thermal shift assay (TSA). In kind it is binding.
Excerpt: as §1, §2, §3, §4, §5

The target in another test is TEAD1 (Homo sapiens, UniProt P28347). Put plainly: TEAD thermal shift assay (TSA). In kind it is binding.
Excerpt: as §1, §2, §3, §4, §5

For the next test, the target named is TEAD2 (Homo sapiens, UniProt Q15562). Put plainly: TEAD thermal shift assay (TSA). The test is classed as binding.
Excerpt: as §1, §2, §3, §4, §5

For another test, the system named is LOU-NH91 cells. Put plainly: LOU-NH91 proliferation and cell viability assay (CTG). The test is classed as cell-based. Particulars: LOU-NH91 cell line, 216 hours. The protocol: LOU-NH91 cells were trypsinised, counted and plated at the specified cell density in 200 μl of growth media in 96 well flat bottom tissue culture treated plates. The plated cells were incubated overnight at 37° C., 5% CO2 before being treated with compounds in triplicate for each assay point. 50 μl of the serially diluted compound was added to each well giving a final DMSO concentration of 0.5% per well and a total volume of 250 μl per well. The treated cells were incubated for 216 hours (9 days) at 37° C., 5% CO2. Following compound treatment, the remaining viable cells were detected using the Promega CellTiter-Glo 2.0 assay as follows: 150 μl of media was removed from each of the wells to be assayed and 100 μl of room temperature CellTiter-Glo 2.0 reagent was added. The plate was placed on an orbital shaker at 500 rpm at room temperature for 2 minutes, and then incubated without shaking for a further 10 minutes at room temperature. 150 μl of cell lysate was removed from each well and dispensed into a single well of a white opaque 96 well plate. Luminescence at 545 nm was read using a BMG CLARIOstar plate reader. The luminescent signal was directly proportional to number of viable cells, the percent of viable cells relative to the DMSO control was then calculated for each assay point. Percent viability relative to DMSO control was plotted against compound concentration and a curve fitted with non-linear regression in GraphPad Prism software. EC50 and IC50 values were calculated using GraphPad Prism software as follows: For EC50 values a non-constrained four-parameter logistic curve fit was used (Sigmoidal, 4PL, X is concentration). For Absolute IC50 values the baseline was constrained to Y=0 (Absolute IC50, X is concentration). Area Under the Curve (AUC): Prism computes area-under-the-curve by the trapezoidal method. The analysis sees a fitted curve as simply a series of connected XY points. Prism simply computes the area under the “curve” defined by connecting the points by straight lines. The units of the AUC are the units of the Y axis times units of the X axis.

The test system of the next test is SDM103T2 cells. Put plainly: SDM103T2 proliferation and cell viability assay (CTG). The test is classed as cell-based. The note with it: SDM103T2 cell line, 144 hours. How it is done: SDM103T2 cells were trypsinised, counted and plated at the specified cell density in 200 μl of growth media in 96 well flat bottom tissue culture treated plates. The plated cells were incubated overnight at 37° C., 5% CO2 before being treated with compounds in triplicate for each assay point. 50 μl of the serially diluted compound was added to each well giving a final DMSO concentration of 0.5% per well and a total volume of 250 μl per well. The treated cells were incubated for 144 hours (6 days) at 37° C., 5% CO2. Following compound treatment the remaining viable cells were detected using the Promega CellTiter-Glo 2.0 assay as follows: 150 μl of media was removed from each of the wells to be assayed and 100 μl of room temperature CellTiter-Glo 2.0 reagent was added. The plate was placed on an orbital shaker at 500 rpm at room temperature for 2 minutes, and then incubated without shaking for a further 10 minutes at room temperature. 150 μl of cell lysate was removed from each well and dispensed into a single well of a white opaque 96 well plate. Luminescence at 545 nm was read using a BMG CLARIOstar plate reader. The luminescent signal was directly proportional to number of viable cells, the percent of viable cells relative to the DMSO control was then calculated for each assay point. Percent viability relative to DMSO control was plotted against compound concentration and a curve fitted with non-linear regression in GraphPad Prism software. EC50 and IC50 values were calculated using GraphPad Prism software as follows: For EC50 values a non-constrained four-parameter logistic curve fit was used (Sigmoidal, 4PL, X is concentration). For Absolute IC50 values the baseline was constrained to Y=0 (Absolute IC50, X is concentration). Area Under the Curve (AUC): Prism computes area-under-the-curve by the trapezoidal method. The analysis sees a fitted curve as simply a series of connected XY points. Prism simply computes the area under the “curve” defined by connecting the points by straight lines. The units of the AUC are the units of the Y axis times units of the X axis.

The test system of another test is NCI-H226 xenograft. The experiment in a line: Inhibition of mouse xenograft NCI-H226 tumors. Particulars: Day 27; 3 mg/kg, p.o., QD. In kind it is in vivo, BALB/c nude mice. From the text:
This study evaluated the in vivo therapeutic efficacy of TEAD inhibitors in the treatment of the subcutaneous lung cancer NCI-H226 xenograft model in female BALB/c nude mice.
• ANOVA Analysis of variance • BW Body weight • BWL Body weight loss • FFPE Formalin fixed paraffin embedded • IACUC Institutional animal care and use committee • MTV Mean tumor volume • N/A Not available or not applicable • p.o. Oral (ly) • QD Once a day • REG REG=[(T0−Ti)/T0]×100%; • Ti as the mean tumor volume of the treatment group on the measurement day; • T0 as the mean tumor volume of the treatment group on Day 0. • ROA Route of administration • RT Room temperature • RTV Relative tumor volume • SD Standard deviation • SEM Standard error of mean • SOC Standard of care used in clinical setting for a specific disease • TBD To be determined • T/C The Ti/Ci value (%): T/C %=Ti/Ci×100; • Ti and Ci are the mean tumor volumes of the treatment and control groups, respectively, on a given day. • TGI Tumor growth inhibition; TGI %=(1−Ti/Ci)×100; • Ti and Ci are the mean tumor volumes of the treatment and control groups, respectively, on a given day. • TV Tumor volume • PK/PD Pharmacokinetics/Pharmacodynamics • ΔInhibition Mean % ΔInhibition=((Ci−C0)−(Ti−T0))/(Ci−C0)*100% • Ti and Ci are the mean tumor volumes of the treatment and control groups, respectively, on a given day. T0 and C0 as the mean tumor volumes of the treatment and vehicle groups on Day 0.
• Species Mus musculus • Strain Balb/c nude • Supplier GemPharmatech Co., Ltd • Gender Female • No. of Animals Ordered 68 (45 plus 23 spare) • No. of Animals Assigned 45 • to Study • Average Age of Animals 6-8 weeks • at Study Initiation
The NCI-H226 cells (CL-00364) cancer cells were maintained in vitro with RPMI1640 medium supplemented with 10% fetal bovine serum at 37° C. in an atmosphere of 5% CO2 in the air. The cells in exponential growth phase were harvested and quantitated by cell counter before tumor inoculation.
Each mouse was inoculated subcutaneously in the right front flank region with NCI-H226 tumor cells (1×10^7) in 0.2 ml of PBS mixed with Matrigel (1:1) for tumor development.
The randomization was performed when the mean tumor size reached 138.81 mm^3. 45 mice were enrolled in the study. All animals were randomly allocated to 9 study groups, 5 mice in each group. Randomization was performed based on “Matched distribution” method/“Stratified” method (StudyDirector™ software, version 3.1.399.19)/randomized block design. The date of randomization was denoted as day 0.
The treatment was initiated on the same day of randomization (day 0) per study design.
After tumor cells inoculation, the animals were checked daily for morbidity and mortality. During routine monitoring, the animals were checked for any effects of tumor growth and treatments on behavior such as mobility, food and water consumption, body weight gain/loss (Body weights were measured twice per week after randomization), eye/hair matting and any other abnormalities. Mortality and observed clinical signs were recorded for individual animals in detail.
Tumor volumes were measured twice per week after randomization in two dimensions using a caliper, and the volume was expressed in mm^3 using the formula: “V=(L×W×W)/2, where V is tumor volume, L is tumor length (the longest tumor dimension) and W is tumor width (the longest tumor dimension perpendicular to L). Dosing as well as tumor and body weight measurements were conducted in a Laminar Flow Cabinet.
To compare tumor volumes of different groups at a pre-specified day, Bartlett's test was first used to check the assumption of homogeneity of variance across all groups. When the p-value of Bartlett's test was >=0.05, one-way ANOVA was performed to test overall equality of means across all groups. […]

The mark [1] stands for this setting: ratio of protein to compound 1:1.
Where [2] appears, read: ratio of protein to compound 1:3.

Chain of TEAD3 (Q99594 whole entry): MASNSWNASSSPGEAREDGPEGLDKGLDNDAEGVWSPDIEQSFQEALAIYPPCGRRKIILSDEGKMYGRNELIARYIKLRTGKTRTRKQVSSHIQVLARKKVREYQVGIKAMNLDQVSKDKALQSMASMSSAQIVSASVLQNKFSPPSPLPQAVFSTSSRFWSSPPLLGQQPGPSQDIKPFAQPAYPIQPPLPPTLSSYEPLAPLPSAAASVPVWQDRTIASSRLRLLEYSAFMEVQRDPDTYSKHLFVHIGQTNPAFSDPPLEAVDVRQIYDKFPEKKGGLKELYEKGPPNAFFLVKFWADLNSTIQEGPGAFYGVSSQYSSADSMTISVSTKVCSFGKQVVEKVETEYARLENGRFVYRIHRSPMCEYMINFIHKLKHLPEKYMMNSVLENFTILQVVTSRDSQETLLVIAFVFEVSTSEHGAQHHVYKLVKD
Chain of TEAD2 (Q15562 whole entry): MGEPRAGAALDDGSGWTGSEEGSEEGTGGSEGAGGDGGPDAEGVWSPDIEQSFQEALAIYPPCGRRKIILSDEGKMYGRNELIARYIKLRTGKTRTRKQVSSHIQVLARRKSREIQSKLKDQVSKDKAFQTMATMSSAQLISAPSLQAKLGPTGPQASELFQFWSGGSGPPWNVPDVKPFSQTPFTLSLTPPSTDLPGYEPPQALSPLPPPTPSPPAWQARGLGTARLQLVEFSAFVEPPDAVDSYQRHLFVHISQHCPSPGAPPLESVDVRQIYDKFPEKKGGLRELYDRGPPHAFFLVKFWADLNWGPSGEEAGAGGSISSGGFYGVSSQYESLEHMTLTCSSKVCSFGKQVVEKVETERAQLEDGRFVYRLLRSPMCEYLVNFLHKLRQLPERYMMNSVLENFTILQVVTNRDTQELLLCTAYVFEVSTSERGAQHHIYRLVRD
Chain of TEAD1 (P28347 whole entry): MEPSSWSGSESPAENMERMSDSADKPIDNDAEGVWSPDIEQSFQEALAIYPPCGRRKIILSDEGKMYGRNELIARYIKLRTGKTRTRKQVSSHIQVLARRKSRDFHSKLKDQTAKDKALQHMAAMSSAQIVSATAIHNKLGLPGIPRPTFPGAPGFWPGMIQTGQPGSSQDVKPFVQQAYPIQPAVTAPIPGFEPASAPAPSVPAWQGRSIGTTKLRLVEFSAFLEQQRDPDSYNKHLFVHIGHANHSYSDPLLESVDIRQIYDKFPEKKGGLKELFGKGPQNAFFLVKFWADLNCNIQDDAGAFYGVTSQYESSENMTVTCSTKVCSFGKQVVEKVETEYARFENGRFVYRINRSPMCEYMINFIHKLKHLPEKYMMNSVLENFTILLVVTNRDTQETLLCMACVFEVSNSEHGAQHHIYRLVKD
Chain of TEAD4 (Q15561 whole entry): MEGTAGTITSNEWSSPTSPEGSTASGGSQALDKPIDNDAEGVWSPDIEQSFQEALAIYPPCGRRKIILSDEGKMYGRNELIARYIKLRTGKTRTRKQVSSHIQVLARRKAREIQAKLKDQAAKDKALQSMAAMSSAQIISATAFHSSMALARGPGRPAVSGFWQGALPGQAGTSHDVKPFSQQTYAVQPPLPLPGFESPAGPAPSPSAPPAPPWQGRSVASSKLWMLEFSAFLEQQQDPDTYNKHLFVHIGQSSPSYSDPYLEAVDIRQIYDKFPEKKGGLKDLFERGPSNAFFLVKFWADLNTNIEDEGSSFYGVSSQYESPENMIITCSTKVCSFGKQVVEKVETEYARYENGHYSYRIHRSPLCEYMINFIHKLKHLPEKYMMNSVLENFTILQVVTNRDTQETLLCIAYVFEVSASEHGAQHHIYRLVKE

As to `C[C@H](CO)NC(=O)c1cnc2c(C3=CCC(C(F)(F)F)CC3)cccc2c1` (single isomer, unassigned) [Compound 81], the concentration giving a half-maximal response (EC50) with BHY cells (144 h) and in the test with LOU-NH91 cells was under 200 nM in each case. Besides, the “TEAD3 ΔTm” value came out at 4 °C on TEAD3 (setting [1]) and 5 °C at TEAD3 (setting [2]). Also, the “TEAD4 ΔTm” value on TEAD4 (setting [1]) was 5 °C; on TEAD4 (setting [2]) it was 7 °C. Moreover, the “TEAD1 ΔTm” value on TEAD1 (setting [1]) was 9 °C; on TEAD1 (setting [2]), 10 °C. In addition, the “TEAD2 ΔTm” value amounted to 2 °C on TEAD2 (setting [1]) and 3 °C on TEAD2 (setting [2]).
As for `C[C@H](CO)NC(=O)c1cnc2c(C3=CCC(C(F)(F)F)CC3)cccc2c1` (single isomer, unassigned) [Compound 82], the EC50 (commonly the concentration that produces a half-maximal response) with BHY cells (144 hours) is 200 to 1000 nM; in the test on LOU-NH91 cells, under 200 nM.
For the compound `COC[C@H](CO)NC(=O)c1cnc2c(C3=CCC(C(F)(F)F)CC3)cccc2c1` (single isomer, unassigned) [Compound 103], the EC50 in the test with BHY cells (144 h) and with LOU-NH91 cells was under 200 nM in each case.
Consider `COC[C@H](CO)NC(=O)c1cnc2c(C3=CCC(C(F)(F)F)CC3)cccc2c1` (single isomer, unassigned) [Compound 104], for which the EC50 with BHY cells (144 hours) and in the test on LOU-NH91 cells was under 200 nM each time.
In turn, `CNS(=O)(=O)c1ccc(Nc2ccc(C(F)(F)F)cc2)c(-c2cn(C)cn2)c1` [Compound 1-1, reference compound] yielded an EC50 in the test on SDM103T2 cells of under 200 nM. Moreover, the “TEAD3 ΔTm” value at TEAD3 (setting [1]) stood at 0 °C. Besides, the “TEAD4 ΔTm” value at TEAD4 (setting [1]) was 0 °C; on TEAD4 (setting [2]), 1 °C. The “TEAD1 ΔTm” value at TEAD1 (setting [1]) was 2 °C; at TEAD1 (setting [2]) it was 8 °C. The “thermal shift / binding across TEAD isoforms, in words” value on TEAD1 (summary of Table 14 over TEAD1-4) was “pronounced thermal shift only for TEAD1”. The “TEAD2 ΔTm” value on TEAD2 (setting [1]) is 1 °C. Besides, the T/C (commonly the result in the treated group divided by that in the control group, in per cent) in the test with NCI-H226 xenograft was 12.51%. Also, the TGI (in general, how far tumour growth fell short of that in controls) in the test with NCI-H226 xenograft is on record as 87.49%. In the test on NCI-H226 xenograft, the “Tumor Volume (mean ± SEM)” value stood at 66.85 ± 12.17 mm^3.

The values above are taken from US20250223306A1, “TEAD INHIBITORS AND METHODS OF USE” (Sporos BioDiscovery, Inc., priority 2022, published 2025).
